Test results taken from US20010036955A1, “Method of inhibiting angiogenesis” (Genentech, Inc., priority 1998, published 2001).

Experiments:
Format in all cases: cell-based, human
[1] = tested on: Flt-1 mRNA; assay: Real time RT-PCR (Taqman) assay in HUVEC; conditions: HUVEC in three dimensional collagen gels; VEGF, bFGF, PMA; 10:M 15d-PGJ2
Experimental: (§1) This technique has been used to quantitatively monitor mRNA expression and has been described in detail previously (Heid, C. A. et al., (1996) Genome Methods 6:986-994; Gerber, H. et al., (1997) J. Biol. Chem. 272:23659-23667). Total RNA was extracted from HUVEC cultured in three dimensional collagen gels or on collagen-coated flasks for various times in 1× basal medium consisting of M199 supplemented with 1%FBS, 1× ITS, 2 mM L-glutamine, 50 μg/ml ascorbic acid, 26.5 mM NaHCO3, 100 U/ml penicillin and 100 U/ml streptomycin supplemented with 40 ng/ml bFGF (basic fibroblast growth factor), 40 ng/ml VEGF and 80 nM PMA […]. […] The primers and probes used were as follows: […] forward primer 5′-[…]-3′ (SEQ ID NO: 7), reverse primer 5′-CACCATCGCGACCAGATG-3′ (SEQ ID NO: 8), and probe 5′-[…]-3′ (SEQ ID NO: 9); […] forward primer 5′-TGACCTGCGGCAACTGG-3′ (SEQ ID NO: 10), reverse primer 5′-[…]-3′ (SEQ ID NO: 11), and probe 5′-[…]-3′ (SEQ ID NO: 12); human PPARβ gene forward primer 5′-[…]-3′ (SEQ ID NO: 13), reverse primer 5′-[…]-3′ (SEQ ID NO: 14), and probe 5′-[…]-3′ (SEQ ID NO: 15); human Flk/KDR gene forward primer 5′-[…]-3′ (SEQ ID NO: 16), reverse primer 5′-[…]-3′ (SEQ ID NO: 17), and probe 5′-[…]-3′ (SEQ ID NO: 18); human Flt-1 gene forward primer 5′-[…]-3′ (SEQ ID NO: 19), reverse primer 5′-[…]-3′ (SEQ ID NO: 20), and probe 5′-[…]-3′ (SEQ ID NO: 21); human uPA gene forward primer 5′-[…]-3′ (SEQ ID NO: 22), reverse primer 5′-GCGCACACCTGCCCTC-3′ (SEQ ID NO: 23), and probe 5′-[…]-3′ (SEQ ID NO: 24); human PAI-1 gene forward primer 5′-TCGTCCAGCGGGATCTGA-3′ (SEQ ID NO: 25), reverse primer 5′-GTGCTCCGGAACAGCCTG-3′ (SEQ ID NO: 26), and probe 5′-[…]-3′ (SEQ ID NO: 27); human glyceraldehyde-3-phosphate dehydrogenase (GAPDH) gene forward 5′-GAAGGTGAAGGTCGGAGTC-3′ (SEQ ID NO: 28), reverse 5′-[…]-3′ (SEQ ID NO: 29), and probe 5′-[…]-3′ (SEQ ID NO: 30). Total RNA (100 ng) was added to a 50 μl RT-PCR reaction mixture according to the manufacturer's protocol (Roche Molecular Systems, Inc., Branchburg, N.J.). The thermal cycling conditions included 1 cycle at 48° C. for 30 min, 1 cycle at 95° C. for 10 min, 40 cycles at 95° C. for 15 s, at 60° C. for 1 min and finally hold at 25° C. for 2 min. Standard curves for expression of each gene were generated by serial dilution of the total RNA isolated from HUVEC. […] Therefore, the relative mRNA expression of each gene was normalized to the level of GAPDH in the same RNA preparation.

[2] = tested on: PAI-1 mRNA; assay: Real time RT-PCR (Taqman) assay in HUVEC; conditions: at 24 hr; HUVEC in three dimensional collagen gels; 10:M 15d-PGJ2
Experimental: as §1

[3] = tested on: Flk/KDR mRNA; assay: Real time RT-PCR (Taqman) assay in HUVEC; conditions: HUVEC in three dimensional collagen gels; VEGF, bFGF, PMA; 10:M 15d-PGJ2
Experimental: as §1

[4] = tested on: uPA mRNA; assay: Real time RT-PCR (Taqman) assay in HUVEC; conditions: at 4 hr; HUVEC in three dimensional collagen gels; 10:M 15d-PGJ2
Experimental: as §1

[5] = tested on: TIMP-2 mRNA; assay: Real time RT-PCR (Taqman) assay in HUVEC, Example 7; conditions: 10 μM; bFGF, VEGF and PMA; at 4 h
Experimental: (§2) Total RNA was extracted from HUVEC cultured in 3-D type I collagen gels for various times in 1× basal medium supplemented with 40 ng/ml bFGF, 40 ng/ml VEGF, […] PMA or the combination of PMA (80 nM), bFGF and VEGF (40 ng/mil each). […] For all mRNAs evaluated a sample of total RNA (100 ng) was added to a 50 μl RT-PCR reaction mixture according to the manufacturer's protocol (Roche Molecular Systems, Inc., Branchburg, N.J.). The thermal cycling conditions included 1 cycle at 48° C. for 30 min, 1 cycle at 95° C. for 10 min, 40 cycles at 95° C. for 15 s, at 60° C. for 1 min, and finally hold at 25° C. for 2 min. Standard curves for expression of each gene were generated by serial dilution of the total RNA isolated from U937 cells. […] Therefore, the relative mRNA expression of each gene was normalized to the level of GAPDH in the same RNA preparation.

[6] = tested on: MMP-9 mRNA; assay: as above; conditions: 10 μM; 24 h; PMA or PMA with bFGF and VEGF
Experimental: as §2

[7] = tested on: MMP-3 mRNA; assay: as above
Experimental: as §2

[8] = tested on: TIMP-1 mRNA; assay: as above; conditions: 10 μM; bFGF, VEGF and PMA; at 4 h or 24 h
Experimental: as §2

[9] = tested on: MMP-2 mRNA; assay: as above; conditions: 10 μM; 24 h; PMA or PMA with bFGF and VEGF
Experimental: as §2

## CCCCC/C=C/C=C1/C(=O)C=CC1C/C=C\CCCC(=O)O (stereo not shown) [15d-PGJ2, 15-deoxy-delta^12,14-PGJ2]
[1]
  Flt-1 mRNA induction by growth factors: inhibited the induction
[2]
  PAI-1 gene expression: increased
[3]
  KDR mRNA induction by growth factors: inhibited the induction
[4]
  uPA mRNA: reduced
[5]
  TIMP-2 mRNA levels compared to the vehicle treated group: reduced
[6]
  MMP-9 mRNA levels: significant suppression
[7]; HUVEC cultured with combination of bFGF, VEGF and PMA at 24 h
  MMP-3 mRNA levels: increased
[7]; PMA-treated group
  MMP-3 mRNA expression: no effect
[8]
  expression of TIMP-1: did not increase
[9]
  MMP-2 mRNA levels: significant suppression
